Laboratory results as given in patent publication US20060240037A1, “Methods and compositions for the treatment and prevention of degenerative joint disorders” (priority 2003, published 2006).
Counter-ions that a name gives are not always drawn.

Test system: lubricin
Format: cell-based
Conditions: lubricin expression; primary human synovial fibroblasts; cells lysed after 48-72 hours; each supplement in 6 wells
Protocol: To identify substances having the ability to lubricate synovial joints, we first screened a library of substances for the ability to induce expression and secretion of endogenous lubricin in cultured synovial fibroblasts. A library of nutritional supplements containing 175 natural compounds was made using a natural compound collection. Each supplement was dissolved in water to an approximate concentration of 10 mM. 96-well daughter plates were made and plates were stored at −20° C.
Human synovial fibroblasts were plated the evening of the first day of the assay and grown overnight. In the morning of day 2, a supplement solution was added to each well of the 96-well plate. Each supplement was tested in 6 different wells to provide enough separate measurements to allow a statistical analysis of the results of the assay. After 48-72 hours, cells were lysed using a non-ionic detergent and supernatants containing cellular extracts were collected. Each supernatant was assayed for lubricin expression using any of the two methods described below.
We have developed two methods to measure the expression of lubricin, both of which are based on a sandwich assay. In the first sandwich assay, concanavilin A (a lectin) is used to capture lubricin while peanut agglutinin (a lectin) is used to detect proteins secreted by synovial fibroblasts. In contrast, the second assay relies on a rabbit polyclonal antibody for both the capture and detection of lubricin secreted by fibroblasts. In both assays, purified lubricin was used as a calibrator.
A substance that raised the level of measured lubricin in a significant manner when analyzed by t-test was considered a potentially efficacious substance useful for the present invention. All significant results were repeated in two additional experiments. […] In this regard, the 16 compounds that increased lubricin in the lectin-based assay were the same 16 compounds that increased lubricin levels in the antibody-based assay. […] Compounds that increase lubricin expression in synovial fibroblasts are indicated in Table 1 and the level of increase in lubricin expression is shown in Table 2 and FIG. 2.
Substances from the nutritional supplement library were screened for their ability to stimulate lubricin expression in primary human synovial fibroblasts. Cells were cultured in the presence or absence of each substance and lubricin expression was measured using the two detection assays discussed below.
In both assays, the cellular content of synovial cells was extracted as follows. Following the removal of culture media, cells were washed twice with D-PBS. Cells were first incubated in 500 μL of 1% Triton in D-PBS for five minutes and then mechanically disrupted using a pipette to ensure that all cells detach from the plates. The Triton solution containing the cells was transferred to an eppendorf and stored on ice. Samples were sonicated for three seconds and centrifuged for five minutes. The supernatant containing the cellular extracts was transferred to a fresh tube and tested for lubricin expression.

Compound	Percent stimulation relative to untreated control Adjusted for background [%]
CC(C)(CO)[C@@H](O)C(=O)NCCC(=O)O [Compound G-35, Pantothenic Acid]	154
N[C@@H](CS)C(=O)O [Compound G-22, L-Cysteine]	363
O=c1c(O)c(-c2ccc(O)c(O)c2)oc2cc(O)cc(O)c12 [Compound G-15, Quercetin]	118
CCCCCCCCCCCCCCCCCCCCCCCCCCCCO [Compound G-5, Octacosanol]	307
CSCC[C@H](N)C(=O)O [Compound G66, L-Methionine]	234
C[C@]12CCC(=O)C=C1CC[C@@H]1[C@@H]2CC[C@]2(C)C(=O)CC[C@@H]12 [Compound G-57, Androstenedione]	219
Cc1ncc(C[n+]2csc(CCO)c2C)c(N)n1 [Compound G-27, Thiamin HCl]	267
Bromelain [Compound G126]	75
